# Results as given in Sander's compilation of Henry's law constants (doi:10.1021/es00047a026).
# Experiment: Henry solubility constant Hcp at 298.15 K (mol/(m3 Pa))
# Settings: reference: Hoff et al. (1993)
row,SMILES,Henry solubility constant Hcp
1,Cc1ccccc1 [methylbenzene],0.0013
2,CC(C)=O [propanone],0.27
3,"Clc1cccc(Cl)c1 [1,3-dichlorobenzene]",0.0034
4,ClC(Cl)=C(Cl)Cl [tetrachloroethene],0.00063
5,ClCCl [dichloromethane],0.0041
6,ClC(Cl)(Cl)Cl [tetrachloromethane],0.00036
7,Clc1ccccc1 [chlorobenzene],0.0026
8,"CC(Cl)(Cl)Cl [1,1,1-trichloroethane]",0.00053
9,c1ccccc1 [benzene],0.0017
10,ClC=C(Cl)Cl [trichloroethene],0.0011
